Source: patent US20100143459A1, “PHARMACEUTICAL DOSAGE FORM FOR ORAL ADMINISTRATION OF TYROSINE KINASE INHIBITOR” (ABBOTT GMBH & CO. KG, priority 2006, published 2010)

Experiment: Pharmacokinetics in humans after a 10 mg tablet under fasting conditions
Assay type: in vivo
Settings: human patients, single 10 mg oral dose, mean±SD
Protocol: Tablets containing a 10 mg dose of ABT-869 ethanolate, as prepared above, were administered to 11 patients in the morning with 240 mL of water under fasting conditions (defined as no food or drink consumption except water and concomitant medications for 2 hours prior to dosing). Following dosing, 4-mL blood samples were collected for pharmacokinetic analyses at the following times: 0 (pre-dose), 1, 3, 4, 6, 8, 24 and 48 hours. These samples were analyzed for ABT-869 plasma concentrations using Liquid Chromatography/Tandem Mass Spectrometry (LCMS/MS). The lower limit of quantification (LLOQ) for the assay was 1.1 ng/mL.
Pharmacokinetic parameters including the maximum observed plasma concentration (Cmax), time to Cmax (Tmax), the area under the plasma concentration-time curve (AUC) from 0 to time of the last measurable concentration (AUC0-48) and AUC from 0 to infinite time (AUCoo) were determined by non-compartmental methods using WinNonlin Professional version 5.2 software.

AUC0-48 per mg of dose: about 0.40±0.10 μg·h/mL/mg
AUCoo per mg of dose: about 0.55±0.17 μg·h/mL/mg
Cmax per mg of dose: about 0.023±0.004 μg/mL/mg
Tmax (plasma): ~2.8 h
Structure (SMILES): Cc1ccc(F)c(NC(=O)Nc2ccc(-c3cccc4[nH]nc(N)c34)cc2)c1 [ABT 869, N-[4-(3-amino-1H-indazol-4-yl)phenyl]-N′-(2-fluoro-5-methylphenyl)-urea]
